{"source": "patent US20090274714A1", "about": "“TUMOUR-ASSOCIATED PEPTIDES BINDING TO HUMAN LEUKOCYTE ANTIGEN (HLA) CLASS I OR II MOLECULES AND RELATED ANTI-CANCER VACCINE” (Immatics Boitechnologies GmhH, priority 2005, published 2009)", "molecules": {"B1": {"name": "IMA-CCN-001 (peptide from Cyclin D1) (peptide)", "peptide": "LLGATCMFV", "notes": "HLA class I TUMAP; not identified by elution from tumour tissue; also called rCCN-001; CNN-001"}, "B2": {"name": "IMA-MET-001 (peptide from c-met proto-oncogene) (peptide)", "peptide": "YVDPVITSI", "notes": "HLA class I TUMAP; also called c-Met peptide"}}, "key": {"[1]": {"tested_on": "renal cell carcinoma", "settings": "monotherapy, advanced RCC; cited from earlier work"}, "[2]": {"tested_on": "T-cells", "experiment": "Summary of in vitro immunogenicity (killer assay, cytokine release/staining, tetramer detection)", "type": "cell-based, human", "settings": "reference: unpublished", "description": "As in the latter case, several tumour cell lines endogenously expressing the antigen are also recognized.\nIMA contains 10 HLA class I-binding peptides. To test the peptides regarding their in vitro immunogenicity, CD8-positive cytotoxic T-cells were generated from autologous peripheral blood mononuclear cells (PBMC) from healthy donors using single peptides contained in IMA and the activity of these cytotoxic T-cells was tested with chromium release assays and detection of T-cells with HLA tetramers in flow cytometry. Detailed data is shown for one exemplary peptide (IMA-MET-001) for both methods, the data for the other peptides is summarized in Table 8 above.\nIn the first step, cytotoxic T-cells are generated (primed) in vitro by repeated stimulation of peripheral blood mononuclear cells (PBMC) from healthy HLA-A*02 positive donors with the specific peptide to be tested. The priming can be done either using autologous dendritic cells generated from blood monocytes of the donor or using HLA tetramer-loaded beads.\nA. Cytotoxic killing of target: In the second step, cytoxicity of such primed cytotoxic T-cells (CTLs) are tested by labelling target cells with radioactive chromium and incubating target cells with generated CTLs. The amount of radioactive chromium released into the supernatant can be correlated directly to proportion of killed target cells.\nB. Detection of T-cells with HLA tetramers: Alternatively, in the second step primed CTLs with specificity for a given peptide are detected using HLA tetramers. Tetramers consist of four peptide-loaded HLA-A*02 molecules coupled to each other. These constructs allow specific labelling of the cognate T-cell receptor that recognizes the HLA-peptide-complex in the tetramer and by labelling of the tetramer with a fluorochrome followed by analysis in flow cytometry (FACS)."}, "[3]": {"experiment": "Physico-chemical characteristics: solubility", "settings": "solvent giving clear and colourless solution at 1 mg/ml"}, "[4]": {"tested_on": "peptide loaded T2 cells and autologous DC", "settings": "cited from earlier work"}, "[5]": {"tested_on": "HLA-A*02 positive cell lines HCT 116, A498, MZ 1257, MCF-7, MeI 1479 and U266 that express c-Met", "settings": "HLA-A2+/c-Met+ cell lines; SK-OV-3, Croft, K 562 not recognized; cited from earlier work"}, "[6]": {"tested_on": "T-cells", "settings": "reference: published literature; cited from earlier work"}, "[7]": {"tested_on": "U 266 and A 498", "settings": "inhibitor to target ratio 20:1; cited from earlier work"}, "[8]": {"tested_on": "T-cells", "settings": "peptide not vaccinated; not present prior to vaccination; 2 RCC patients; cited from earlier work"}, "[9]": {"tested_on": "CD4-positive T-cells", "experiment": "Intracellular IFNγ staining of in vitro primed CD4-positive T-cells", "type": "cell-based, human", "description": "First, CD4-positive T-cells were generated (primed) in vitro by repeated stimulation of peripheral blood mononuclear cells (PBMC) from healthy donors with the specific peptide to be tested in the presence of IL-12. The priming was performed using autologous dendritic cells generated from blood monocytes of the donors. In the second step, the activity of primed CD4-positive T-cells specific for the given peptide were tested by measurement of IFNγ production by intracellular IFNγ staining using a fluorescently labelled antibody. The analysis was done by flow cytometry (FACS).\nHuman DCs were prepared out of PBMCs from freshly drawn blood from healthy donors. PBMCs were isolated using a Ficoll density gradient (Lymphocyte Separation Medium, PAA Laboratories GmbH, Pasching, Austria). The obtained cells were washed, resuspended in X-Vivo 15 medium supplemented with 50 U/ml penicillin, 50 μg/ml streptomycin and 2 mM L-Glutamine (BioWhittaker, Verviers, Belgium) and plated at a density of 7×10^6 cells/ml. […]\nCryopreserved PBMCs were thawed, washed two times in X-Vivo 15 medium, resuspended at 10^7 cells/ml in T-cell medium and cultured overnight to reduce unspecific IFNγ production (Provenzano 2002). […] Cells were analyzed using a Cytofix/Cytoperm Plus kit (Becton Dickinson) and CD4-FITC− (Immunotools), IFNγ-PE- and CD8-PerCP clone SKI-antibodies (Becton Dickinson). After staining, cells were analyzed on a three-color FACSCalibur (Becton Dickinson).\nTo generate antigen-specific CD4-positive T-cells and to test the peptide on promiscuous binding, PBMCs of 4 healthy donors with different HLA-DR alleles (FIG. 7) were stimulated using peptide-pulsed autologous DCs. As a read-out system for the generation of antigen-specific CD4-positive T-cells IFNγ production was assessed by flow cytometry. T-cells were analyzed after the third and the fourth stimulation by intracellular IFNγ staining plus CD4-FITC and CD8-PerCP staining to determine the percentage of IFNγ-producing cells in specific T-cell subpopulations. […]"}, "[10]": {"settings": "University of Tübingen trial, cited from earlier work"}, "[11]": {"target": "T1, biotinylated recombinant HLA-A*0201 molecules lacking the transmembrane domain (human, biotinylated at the carboxy terminus of the heavy chain)", "T1 construct": "tetramerised on streptavidin-PE or streptavidin-APC at a 4:1 molar ratio, or coupled to streptavidin beads; also called HLA-A*0201 tetramer; HLA tetramers", "experiment": "tetrameric recombinant HLA-A*0201 multimer loaded with the peptide, flow cytometry reagent"}, "[12]": {"target": "T1, biotinylated recombinant HLA-A*0201 …", "experiment": "recombinant HLA-A*0201 refolded with the peptide, used on beads and as tetramer"}}, "note": "Read-outs that look alike come from different tables or passages of the source. Ends that are not written are not given here.", "data": [{"molecule": "IFNα", "values": [{"measurement": "response rate, initially reported", "setting": "[1]", "result": "25-30%"}, {"measurement": "true response rate suggested by additional trials", "setting": "[1]", "result": "about 10%"}]}, {"molecule": "LAALPHSCL-OH [IMA-RGS-001]", "values": [{"measurement": "In vitro immunogenicity (assay by which shown)", "setting": "[2]", "result": "Tetramer detection"}, {"measurement": "Solubility (Clear and colourless solution 1 mg/ml)", "setting": "[3]", "result": "water"}]}, {"molecule": "VMAGDIYSV-OH [IMA-ADF-002]", "values": [{"measurement": "In vitro immunogenicity (assay by which shown)", "setting": "[2]", "result": "Tetramer detection"}, {"measurement": "Solubility (Clear and colourless solution 1 mg/ml)", "setting": "[3]", "result": 10, "unit": "% acetic acid"}]}, {"molecule": "SVFAGVVGV-OH [IMA-GUC-001]", "values": [{"measurement": "Solubility (Clear and colourless solution 1 mg/ml)", "setting": "[3]", "result": 90, "unit": "% acetic acid"}]}, {"molecule": "YVDPVITSI-OH [IMA-MET-001]", "values": [{"measurement": "cytotoxicity of induced CTL against peptide-loaded targets", "setting": "[4]", "result": "antigen-specific killing"}, {"measurement": "lysis of tumour cells endogenously expressing c-Met by induced CTL", "setting": "[5]", "result": "able to efficiently lyse malignant cells expressing both HLA-A2 and c-Met"}, {"measurement": "In vitro immunogenicity (assay by which shown)", "setting": "[6]", "result": "Killer assay, cytokine staining, tetramer"}, {"measurement": "effect of cold T2-cells pulsed with cognate peptide on lysis of tumour cells", "setting": "[7]", "result": "reduced the lysis of tumour cells"}]}, {"molecule": "LLGATCMFV-OH [IMA-CCN-001]", "values": [{"measurement": "In vitro immunogenicity (assay by which shown)", "setting": "[6]", "result": "Killer assay (allogeneic T cells)"}, {"measurement": "Solubility (Clear and colourless solution 1 mg/ml)", "setting": "[3]", "result": 50, "unit": "% acetic acid"}]}, {"molecule": "SVASTITGV-OH [IMA-ADF-001]", "values": [{"measurement": "specific T-cells after vaccination with non-related MUC peptides (epitope spreading)", "setting": "[8]", "result": "detected"}, {"measurement": "In vitro immunogenicity (assay by which shown)", "setting": "[6]", "result": "Killer assay"}, {"measurement": "Solubility (Clear and colourless solution 1 mg/ml)", "setting": "[3]", "result": 10, "unit": "% acetic acid"}]}, {"molecule": "SQDDIKGIQKLYGKRS-OH [IMA-MMP-001]", "values": [{"measurement": "In vitro immunogenicity (assay by which shown)", "setting": "[2]", "result": "Cytokine staining"}, {"measurement": "healthy donors in whom CD4-positive T-cell responses were elicited", "setting": "[9]; 4 healthy donors with different HLA-DR alleles, positive if more than two fold over negative control", "result": "three out of four"}, {"measurement": "CD4-positive T-cell reactivity (intracellular IFN gamma)", "setting": "[9]; Donor 1, 2 and 3, after the third and the fourth stimulation", "result": "showed CD4-positive T-cells reactive"}, {"measurement": "CD4-positive T-cell reactivity (intracellular IFN gamma)", "setting": "[9]; Donor 4", "result": "always negative"}]}, {"molecule": "ALADGVQKV-OH [IMA-APO-001]", "values": [{"measurement": "Solubility (Clear and colourless solution 1 mg/ml)", "setting": "[3]", "result": "water"}]}, {"molecule": "STAPPVHNV-OH [IMA-MUC-001]", "values": [{"measurement": "In vitro immunogenicity (assay by which shown)", "setting": "[6]", "result": "Killer assay, cytokine release"}, {"measurement": "autoimmune effects", "setting": "[10]; administered with autologous dendritic cells", "result": "no autoimmune effects"}, {"measurement": "tolerability", "setting": "[10]; loaded on dendritic cells", "result": "very well tolerated"}, {"measurement": "Solubility (Clear and colourless solution 1 mg/ml)", "setting": "[3]", "result": 10, "unit": "% acetic acid"}]}, {"molecule": "ALFDGDPHL-OH [IMA-K67-001]", "values": [{"measurement": "In vitro immunogenicity (assay by which shown)", "setting": "[2]", "result": "Tetramer detection"}, {"measurement": "Solubility (Clear and colourless solution 1 mg/ml)", "setting": "[3]", "result": 20, "unit": "% acetic acid"}]}, {"molecule": "B1", "values": [{"measurement": "binding result", "setting": "[11]", "result": "binds"}]}, {"molecule": "B2", "values": [{"measurement": "binding result", "setting": "[12]", "result": "binds"}]}, {"molecule": "ALFDGDPHL (HLA class I TUMAP)", "note": "[IMA-K67-001 (peptide from KIAA0367)]", "values": [{"measurement": "binding result", "setting": "[11]", "result": "binds"}]}]}
